According to PubChem BioAssay AID328 (DTP/NCI, 2004):
“And” between values parts separate entries of the source, which are not always exact repeats. Equal entries are not always repeated. Toxic doses and inconclusive results are not listed. The calls were made as follows: active = survival T/C of 150% or more; inactive = T/C below 125% in these data. Non-standard residues stand in square brackets, D forms with d. Residues, ends and D or L forms follow the SMILES beside them. ξ: configuration not given here. ξLac(3-iPr) = CC(C)CC(O)C(=O)O; NMeV = CN[CH](C(=O)O)C(C)C; NMeA = CN[CH](C)C(=O)O; βAla = NCCC(=O)O

Test system: BDF1 mice, P388 leukemia ip, median survival T/C
Assay: NCI In Vivo Anticancer Drug Screen. Data for tumor model P388 Leukemia (intraperitoneal) in B6D2F1 (BDF1) mice
Conditions: endpoint: median survival time, higher = longer survival
In short: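 Compound-treated tumour-bearing mice were compared with vehicle-treated controls. Survival was recorded, and the value is the treated-group measurement divided by the control-group measurement (T/C).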

[1] = dose: 50.0 mg/kg/injection, schedule: Q01DX009 (ip), vehicle: saline with Tween-80
[2] = dose: 100.0 mg/kg/injection, schedule: Q01DX009 (ip), vehicle: saline with Tween-80
[3] = dose: 200.0 mg/kg/injection, schedule: Q01DX009 (ip), vehicle: saline with Tween-80
[4] = dose: 150.0 mg/kg/injection, schedule: Q01DX009 (ip), vehicle: saline with Tween-80
[5] = dose: 50.0 mg/kg/injection, schedule: Q01DX009 (ip), vehicle: Klucel (hydroxypropylcellulose) (HPC)
[6] = dose: 100.0 mg/kg/injection, schedule: Q01DX001 (ip), vehicle: other
[7] = dose: 100.0 mg/kg/injection, schedule: Q01DX009 (ip), vehicle: Klucel (hydroxypropylcellulose) (HPC)
[8] = dose: 200.0 mg/kg/injection, schedule: Q01DX001 (ip), vehicle: other
[9] = dose: 200.0 mg/kg/injection, schedule: Q01DX009 (ip), vehicle: Klucel (hydroxypropylcellulose) (HPC)
[10] = dose: 400.0 mg/kg/injection, schedule: Q01DX001 (ip), vehicle: other
[11] = dose: 400.0 mg/kg/injection, schedule: Q04DX003 (ip), vehicle: saline
[12] = dose: 12.5 mg/kg/injection, schedule: Q01DX009 (ip), vehicle: saline
[13] = dose: 25.0 mg/kg/injection, schedule: Q01DX009 (ip), vehicle: saline
[14] = dose: 50.0 mg/kg/injection, schedule: Q01DX009 (ip), vehicle: saline
[15] = dose: 100.0 mg/kg/injection, schedule: Q04DX003 (ip), vehicle: saline
[16] = dose: 200.0 mg/kg/injection, schedule: Q04DX003 (ip), vehicle: saline
[17] = dose: 1.25 mg/kg/injection, schedule: Q01DX009 (ip), vehicle: saline
[18] = dose: 2.5 mg/kg/injection, schedule: Q01DX009 (ip), vehicle: saline
[19] = dose: 5.0 mg/kg/injection, schedule: Q01DX009 (ip), vehicle: saline
[20] = dose: 100.0 mg/kg/injection, schedule: Q04DX003 (ip), vehicle: saline with Tween-80

Measured: T/C

CCCCCCNc1c(F)c(C#N)c(F)c(F)c1C#N
inactive: [1] 103 % of control | [2] 93 % of control | [3] 110 % of control

OCC(O)C(O)C(O)c1cnn(-c2ccccc2)n1 (stereo unspecified)
inactive: dose: 75.0 mg/kg/injection, schedule: Q01DX009 (ip), vehicle: saline with Tween-80 96 % of control | [4] 89 % of control | dose: 300.0 mg/kg/injection, schedule: Q01DX009 (ip), vehicle: saline with Tween-80 96 % of control

COC(=O)C1(Br)CCC1(Br)C(=O)OC (stereo unspecified)
inactive: [5] 100 % of control | [6] 100 % of control | [7] 109 % of control | dose: 100.0 mg/kg/injection, schedule: Q04DX003 (ip), vehicle: Klucel (hydroxypropylcellulose) (HPC) 109 % of control | [8] 95 % of control | [9] 113 % of control | dose: 200.0 mg/kg/injection, schedule: Q04DX003 (ip), vehicle: Klucel (hydroxypropylcellulose) (HPC) 109 % of control | [10] 112 % of control | dose: 400.0 mg/kg/injection, schedule: Q04DX003 (ip), vehicle: Klucel (hydroxypropylcellulose) (HPC) 113 % of control

Cc1c2c(cc3c1[nH]c1ccccc13)C(c1ccc(Cl)cc1)=NCC2
inactive: [7] 86 % of control

FC(F)(F)c1nc[nH]c1C(F)(F)F
inactive: dose: 3.12 mg/kg/injection, schedule: Q01DX009 (ip), vehicle: water 99 % of control | dose: 6.25 mg/kg/injection, schedule: Q01DX009 (ip), vehicle: water 90 % of control | dose: 12.5 mg/kg/injection, schedule: Q01DX009 (ip), vehicle: water 91 % of control | dose: 25.0 mg/kg/injection, schedule: Q01DX009 (ip), vehicle: water 99 % of control | dose: 50.0 mg/kg/injection, schedule: Q01DX009 (ip), vehicle: water 89 % of control | dose: 50.0 mg/kg/injection, schedule: Q04DX003 (ip), vehicle: water 98 % of control | dose: 100.0 mg/kg/injection, schedule: Q04DX003 (ip), vehicle: water 104 % of control

CCOCCC(O)CC (stereo unspecified)
inactive: dose: 178.0 mg/kg/injection, schedule: Q04DX003 (ip), vehicle: saline 100 % of control | dose: 266.0 mg/kg/injection, schedule: Q04DX003 (ip), vehicle: saline 100 % of control | [11] 100 % of control

CN(C)Cc1ccc([N+](=O)[O-])cc1
inactive: [12] 116 % of control | [13] 119 % of control | [14] 104 % of control | dose: 50.0 mg/kg/injection, schedule: Q04DX003 (ip), vehicle: saline 107 % of control | [15] 90 % of control | [16] 107 % of control

O=[N+]([O-])c1ccc(Cl)nc1
inactive: [3] 95 % of control

CC(=O)Oc1cc2cnc3c4cc(OC(C)=O)c(OC(C)=O)cc4ccc3c2cc1OC(C)=O
inactive: dose: 0.62 mg/kg/injection, schedule: Q01DX009 (ip), vehicle: saline 106 % of control | [17] 94 % of control | [18] 97 % of control | [19] 86 % of control | dose: 20.0 mg/kg/injection, schedule: Q01DX009 (ip), vehicle: saline 109 % of control | dose: 80.0 mg/kg/injection, schedule: Q01DX009 (ip), vehicle: saline 86 % of control | dose: 120.0 mg/kg/injection, schedule: Q01DX009 (ip), vehicle: saline 90 % of control | dose: 240.0 mg/kg/injection, schedule: Q01DX009 (ip), vehicle: saline 95 % of control

CN(N=O)C(=O)NC(C=O)C(O)C(O)C(O)CO (stereo unspecified)
inactive: dose: 25.0 mg/kg/injection, schedule: Q01DX010 (ip), vehicle: saline 113 % of control

CCOC(=O)CCN1CCCCC1
inactive: dose: 100.0 mg/kg/injection, schedule: Q01DX009 (ip), vehicle: saline 96 % of control | [15] 95 % of control | dose: 200.0 mg/kg/injection, schedule: Q01DX009 (ip), vehicle: saline 89 % of control | [16] 109 % of control | dose: 400.0 mg/kg/injection, schedule: Q01DX009 (ip), vehicle: saline 107 % of control | [11] 109 % of control

COc1ccc(C(=O)CCCCl)c(OC)c1
inactive: [20] 100 % of control | dose: 200.0 mg/kg/injection, schedule: Q04DX003 (ip), vehicle: saline with Tween-80 100 % of control | dose: 400.0 mg/kg/injection, schedule: Q04DX003 (ip), vehicle: saline with Tween-80 90 % of control

CCC(C)C1NC(=O)C2CCCN2C(=O)C(CC(C)C)OC(=O)CCNC(=O)C(C)N(C)C(=O)C(C(C)C)N(C)C1=O (stereo unspecified) (cyclo([ξLac(3-iPr)]PI[NMeV][NMeA][βAla]); configuration not given here)
inactive: dose: 0.82 mg/kg/injection, schedule: Q01DX009 (ip), vehicle: saline 115 % of control | [17] 91 % of control | dose: 1.8 mg/kg/injection, schedule: Q01DX009 (ip), vehicle: saline 107 % of control | [18] 96 % of control | [19] 108 % of control | dose: 10.0 mg/kg/injection, schedule: Q01DX009 (ip), vehicle: saline 104 % of control

CCCCCCCCCCCCC(C(=O)O)C1C=CCC1 (stereo unspecified)
inactive: [6] 100 % of control | [8] 100 % of control | [10] 100 % of control

CN(/N=N/N(C)c1ccccc1)c1ccccc1
inactive: dose: 100.0 mg/kg/injection, schedule: Q04DX003 (ip), vehicle: saline sonified 110 % of control | [3] 120 % of control | dose: 200.0 mg/kg/injection, schedule: Q04DX003 (ip), vehicle: saline sonified 110 % of control | dose: 400.0 mg/kg/injection, schedule: Q01DX009 (ip), vehicle: saline with Tween-80 110 % of control | dose: 400.0 mg/kg/injection, schedule: Q04DX003 (ip), vehicle: saline sonified 100 % of control

CCCCOC(=O)C(C)OC(=O)Nc1ccccc1 (stereo unspecified)
inactive: dose: 100.0 mg/kg/injection, schedule: Q04DX003 (sc), vehicle: olive oil, sesame oil, peanut oil 100 % of control | dose: 200.0 mg/kg/injection, schedule: Q04DX003 (sc), vehicle: olive oil, sesame oil, peanut oil 88 % of control | dose: 400.0 mg/kg/injection, schedule: Q04DX003 (sc), vehicle: olive oil, sesame oil, peanut oil 103 % of control

COc1cccn(C/C=C(\C)CCC=C(C)C)c1=O
inactive: dose: 25.0 mg/kg/injection, schedule: Q01DX009 (ip), vehicle: saline with Tween-80 116 % of control | [1] 109 % of control | dose: 50.0 mg/kg/injection, schedule: Q04DX003 (ip), vehicle: saline with Tween-80 91 % of control | dose: 80.0 mg/kg/injection, schedule: Q01DX009 (ip), vehicle: saline with Tween-80 93 % of control | [20] 100 % of control | [4] 116 % of control

O=NN(c1ccccc1)c1ccc(N(N=O)c2ccccc2)cc1
inactive: [5] 100 % of control | [7] 105 % of control | [9] 110 % of control

CC(=O)N=C1CCCC1C#N (stereo unspecified)
inactive: dose: 100.0 mg/kg/injection, schedule: Q01DX001 (ip), vehicle: Klucel (hydroxypropylcellulose) (HPC) 104 % of control | dose: 200.0 mg/kg/injection, schedule: Q01DX001 (ip), vehicle: Klucel (hydroxypropylcellulose) (HPC) 100 % of control | dose: 400.0 mg/kg/injection, schedule: Q01DX001 (ip), vehicle: Klucel (hydroxypropylcellulose) (HPC) 95 % of control

O=C(Nc1ccc(CCNC2=NCCN2)cc1)c1ccc(C(=O)Nc2ccc(CCNC3=NCCN3)cc2)cc1
active: dose: 8.2 mg/kg/injection, schedule: Q01DX009 (ip), vehicle: saline 199 % of control | [12] 226 % of control and 254 % of control | dose: 18.0 mg/kg/injection, schedule: Q01DX009 (ip), vehicle: saline 226 % of control | [13] 156 % of control
inactive: dose: 1.0 mg/kg/injection, schedule: Q01DX009 (ip), vehicle: saline 106 % of control | dose: 2.0 mg/kg/injection, schedule: Q01DX009 (ip), vehicle: saline 106 % of control | [14] 122 % of control

CCCCC(CC)COC(=O)CC(CC(=O)OCC(CC)CCCC)C(=O)OCC(CC)CCCC (stereo unspecified)
inactive: [1] 92 % of control | [2] 92 % of control | [3] 92 % of control

COc1cc(CC#N)ccc1C
inactive: dose: 25.0 mg/kg/injection, schedule: Q01DX009 (ip), vehicle: Klucel (hydroxypropylcellulose) (HPC) 92 % of control
